{"source": "patent US8133471B2", "about": "“CLK-peptide and SLK-peptide” (New York University, priority 2003, dated 2012)", "key": {"[1]": {"system": "Human melanoma (M21) cells", "assay": "M21 cell adhesion, CLK-peptide combined with mAb HUIV26 (Example 10)", "assay_type": "cell-based", "settings": "data not shown", "experimental": "FIG. 10 Effect of mAb HUIV26 in Combination with CLK-Peptide on Adhesion of M21 Cells to Denatured Collagen Type IV. Microtiter wells were coated with denatured collagen type-IV. M21 cells were allowed to bind to the coated substrates in the presence of CLK-peptide, mAb HUIV26, or both.\nThe effects of CLK-peptide, mAb HUIV26, and the combination of both on tumor cell adhesion were examined in vitro. Non-tissue culture treated 48-well microtiter plates were coated overnight at 4° C. with either native or denatured collagen type-IV (5 μg/ml). The plates were then blocked with 1% BSA in PBS for 1 hour at 37° C. Human melanoma (M21) cells at 10^5 cells/well in adhesion buffer were allowed to attach to the coated wells in the presence of either CLK-peptide (100 μg/ml), or mAb HUIV26 (100 μg/ml), or both together (CLK-peptide 25 μg/ml, mAb HUIV26 100 μg/ml). The cells were washed 2× with PBS, stained with crystal violet and destained with 10% acetic acid. Cell adhesion was quantified by measuring the O.D. of eluted dye at 600 nm. Data bars represent the mean O.D.±standard deviation from triplicate wells."}, "[2]": {"system": "denatured collagen type-IV", "assay": "Competition ELISA, mAb HUIV26 binding to denatured collagen type-IV with or without CLK-peptide", "settings": "HUIV26 1 μg/ml; CLK-peptide 100 μg/ml; 2 hours 37° C.", "experimental": "FIG. 14 Inhibition of Binding of Labeled CLK-Peptide to Denatured Collagen Type-IV by mAbs HUI77. To examine the binding specificity of the synthetic CLK-Peptide, the peptide was labeled and solid phase ELISAs were performed. Denatured collagen type-IV (10 μg/ml) was coated on microtiter wells and binding of either HRP-labeled CLK-Peptide or mAbs (mAbs HUI77 or HUIV26) was measured by ELISA at a wavelength of 490 nm. […] B. MAb HUIV26 was allowed to bind the denatured collagen in the presence or absence of CLK-Peptide.\nMicrotiter wells were coated with denatured collagen type-IV (1 μg/ml) overnight at 4° C., and the plates blocked with 1% BSA for 1 hour at 37° C. HUIV26 was added at 1 μg/ml and allowed to bind the denatured collagen in the presence or absence of 100 μg/ml CLK-peptide for 2 hours at 37° C. Labeled goat-anti-mouse antibody was added at 1:3000 and incubation was allowed for 1 hour at 37° C. Color solution, then a stopping solution of 4N sulfuric acid, were added and binding was quantified by measuring the O.D. at 490 nm. […] Similar results were obtained over a wide range of peptide and antibody concentrations (1 to 100 μg/ml) (data not shown)."}, "[3]": {"system": "denatured collagen type-IV", "assay": "Solid phase ELISA, labeled CLK-peptide binding to denatured collagen type-IV", "experimental": "FIG. 15 CLK-Peptide Reacts with a Cryptic Epitope in Collagen Type-IV In Vitro. Reactivity of biotin-labeled CLK-Peptide was assessed by solid phase ELISA. Reactivity was monitored by incubation with HRP-labeled streptavidin. […] All data was corrected for nonspecific binding of HRP-labeled streptavidin only. Data bars represent the mean optical density (O.D.)±standard deviation from triplicate wells. Assays were repeated 2 to 3 times with similar results.\nThe CLK-peptide was labeled with HRP and used in solid phase ELISA to assess differential binding to either native or denatured collagen type-IV. Microtiter plates were coated with either native or denatured collagen type-IV and HRP-labeled CLK-peptide was allowed to bind. […] In contrast, CLK-Peptide readily bound to denatured collagen type-IV. […] To determine whether this cryptic epitope was also exposed within the ECM in vivo, biotin-labeled CLK-peptide was used to stain M21 human melanoma tumors growing in nude mice (results shown in FIGS. 16A and B and described in Example 15)."}, "[4]": {"system": "GL261 tumor cells", "assay": "GL261 cell migration, CLK-peptide combined with ionizing radiation (Example 22)", "assay_type": "cell-based, murine", "settings": "50 μg/ml + 5.0 Gy; 6 hours; versus controls", "experimental": "The effects, of combining CLK-peptide with radiation therapy, on invasive tumor cell migration are examined. GL261 cells are resuspended in migration buffer in the presence or absence of CLK-peptide or control (50 μg/ml). The cells are added to the coated wells and allowed to incubate for 1 hour, and either left untreated or irradiated with a single fraction dose of ionizing radiation (5.0 Gy). The GL261 tumor cells are allowed to migrate for 6 hours. Tumor cells that have migrated to the underside of the coated membranes are quantified by staining with crystal violet, and the optical densities of cell-associated dye are measured with a microplate reader at a wavelength of 600 nm. CLK-peptide in combination with ionizing radiation is found to inhibit GL261 cell migration on denatured collagen type-IV substantially when compared to controls."}, "[5]": {"system": "p21CIP1", "assay": "p21CIP1 expression by Western blot in M21 cells", "assay_type": "cell-based, human", "settings": "100 μg/ml", "experimental": "FIG. 12 Inhibition of Cellular Interactions by CLK-Peptide Enhances Expression of P21CIP1 in Human Melanoma (M21) Cells. Non-tissue culture treated 96-well plates were coated with denatured collagen type-IV (10 μg/ml). Human melanoma cells (M21) were allowed to proliferate in the presence or absence of CLK-Peptide or control peptide CTW (100 μg/ml) over a 3-day time course. Cells were then allowed to incubate for 12 hours in 1% serum-containing medium. Expression of P21 CIP1 and actin control were evaluated by Western blotting.\nTo examine whether the cryptic epitope recognized by CLK-peptide plays a role in cellular proliferation, in vitro proliferations assays were carried out (FIG. 13). In addition, the effects of CLK-peptide on expression of the CDK inhibitor p21^CIP1 were examined by Western blotting methods (FIG. 12). Non-tissue culture treated microtiter wells were coated with denatured collagen type-IV. Human M21 melanoma cells were resuspended in 1% RPMI in the presence or absence of CLK or control CTW-peptide (100 μg/ml). Proliferation was monitored by measuring the relative levels of mitochondrial dehydrogenase using a commercially available (WST-I) proliferation kit (Chemicon)."}, "[6]": {"system": "GL261 glioblastoma tumors", "assay": "GL261 tumors grown on chick CAMs, CLK-peptide combined with ionizing radiation", "assay_type": "in vivo", "settings": "CLK-peptide 50 μg/embryo + 5.0 Gy; 7-day incubation", "experimental": "FIG. 25 Effects of CLK-Peptide on Anti-Tumor Activity of Ionizing Radiation In Vivo. Glioblastoma tumors grown on CAMs were treated with either CLK-Peptide, ionizing radiation, both, or left untreated as a control. Their relative sizes after incubation are shown. FIG. 26 Quantitation of the Effects of CLK-Peptide on Anti-tumor Activity of Ionizing Radiation in vivo. Glioblastoma tumors grown on CAMs were treated with either CLK-Peptide, ionizing radiation, both, or left untreated as a control. Their relative wet weights following treatment are graphed. The effects of CLK-peptide in combination with ionizing radiation on tumor growth in vivo were assessed. GL261 glioblastoma cells were seeded on the CAMs of 10-day old chick embryos. Twenty-four hours later, the embryos were injected systemically with CLK-peptide (50 μg/embryo). Twenty-four hours after CLK-peptide treatment the embryos were either untreated or irradiated with a single fraction dose of ionizing radiation (5.0 Gy). Photographs showing the relative sizes of […] given each treatment individually, the combination treatment, and not treated, are shown in FIG. 25. At the end of the 7-day incubation period the tumors (N=6 to 8 per condition) were removed and wet weights determined."}}, "data": [{"substance": "H-CLKQNGGNFSLG-OH [CLK-peptide, NH2-C-L-K-Q-N-G-G-N-F-S-L-G-COOH]", "values": [{"measurement": "effect on M21 cell adhesion to native collagen type-IV", "setting": "[1]", "value": "neither had any effect"}, {"measurement": "blocking of mAb HUIV26 binding to denatured collagen type-IV", "setting": "[2]", "value": "did not block"}, {"measurement": "binding to denatured collagen type-IV", "setting": "[3]", "value": "readily bound"}, {"measurement": "inhibition of GL261 cell migration on denatured collagen type-IV in combination with ionizing radiation", "setting": "[4]", "value": "substantially"}, {"measurement": "expression of the CDK inhibitor p21CIP1", "setting": "[5]", "value": "up-regulated"}, {"measurement": "inhibition of tumor growth (wet weights), combination therapy versus either treatment alone", "setting": "[6]", "value": "greater"}]}]}
